# Laboratory results taken from US9434724B2, “Quinuclidines for modulating alpha 7 activity” (priority 2014, dated 2016).
# pIC50, pKi: −log10 of the molar value.
# Target: rat brain nicotinic receptor (α7 NAChR) (Rattus norvegicus (Rat), UniProt Q05941)
# Assay: not given
# Assay type: binding
# Settings: not given
# Sequence of rat brain nicotinic receptor (α7 NAChR) (Q05941 23-502 limits assumed): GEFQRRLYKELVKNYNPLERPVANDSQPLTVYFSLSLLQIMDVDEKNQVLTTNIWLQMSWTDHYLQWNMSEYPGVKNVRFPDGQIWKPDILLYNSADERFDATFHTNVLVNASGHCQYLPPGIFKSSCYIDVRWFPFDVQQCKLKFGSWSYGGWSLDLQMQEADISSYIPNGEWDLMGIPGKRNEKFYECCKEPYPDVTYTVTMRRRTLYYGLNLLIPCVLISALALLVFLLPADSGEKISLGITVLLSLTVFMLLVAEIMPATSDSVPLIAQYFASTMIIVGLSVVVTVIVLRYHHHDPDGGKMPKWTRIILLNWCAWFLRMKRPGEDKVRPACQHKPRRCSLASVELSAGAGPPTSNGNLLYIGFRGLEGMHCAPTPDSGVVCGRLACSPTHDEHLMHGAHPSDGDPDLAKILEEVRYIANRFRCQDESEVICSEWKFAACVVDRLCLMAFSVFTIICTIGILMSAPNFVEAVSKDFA
Structure (SMILES),pIC50,pKi
"O=C(OCC12CCN(CC1)CC2)c1c[nH]c2cccc(C3CC3)c12 [Compound 61, Quinuclidin-4-ylmethyl 4-cyclopropyl-1H-indole-3-carboxylate]",5.72,5.79
"Cl.O=C(OCC12CCN(CC1)CC2)c1c[nH]c2cc(F)cc(Cl)c12 [Compound 64, quinuclidin-4-ylmethyl 4-chloro-6-fluoro-1H-indole-3-carboxylate hydrochloride]",6.47,6.54
"Cc1cc2[nH]cc(C(=O)OCC34CCN(CC3)CC4)c2cc1Cl.Cl [Compound 66, quinuclidin-4-ylmethyl 5-chloro-6-methyl-1H-indole-3-carboxylate hydrochloride]",5.92,6.00
"O=C(OCC12CCN(CC1)CC2)c1c[nH]c2ccc(F)c(Br)c12 [Compound 67, quinuclidin-4-ylmethyl 4-bromo-5-fluoro-1H-indole-3-carboxylate]",6.70,6.76
"Cc1ccc2[nH]cc(C(=O)OCC34CCN(CC3)CC4)c2c1Br [Compound 68, quinuclidin-4-ylmethyl 4-bromo-5-methyl-1H-indole-3-carboxylate]",6.58,6.64
"COc1cc2c(C(=O)OCC34CCN(CC3)CC4)c[nH]c2cc1Cl [Compound 69, quinuclidin-4-ylmethyl 6-chloro-5-methoxy-1H-indole-3-carboxylate]",6.40,6.47
"Cc1ccc2[nH]cc(C(=O)OCC34CCN(CC3)CC4)c2c1C [Compound 70, quinuclidin-4-ylmethyl 4,5-dimethyl-1H-indole-3-carboxylate]",6.50,6.57
"Cl.O=C(OCC12CCN(CC1)CC2)c1c[nH]c2cc(Cl)cc(Cl)c12 [Compound 71, quinuclidin-4-ylmethyl 4,6-dichloro-1H-indole-3-carboxylate hydrochloride]",6.34,6.40

# Tested on: not listed separately
# Assay: Human plasma stability
# Assay type: in vitro ADME
# Settings: Protocol No. 2; plasma, 5 μM, 37° C.
# Procedure: Protocol 1: Studies were carried out in human plasma. All plasma was obtained from Bioreclamation and collected on sodium heparin. Plasma was adjusted to pH 7.4. A DMSO stock was first prepared for the test compound. An aliquot of the DMSO solution was dosed into 1 mL of plasma, which had been pre-warmed to 37° C., at a final test compound concentration of 1 μM. The vials were kept in a benchtop Thermomixer® for the duration of the experiment. Aliquots (100 μL) were taken at each time point (0, 15, 30, 60, and 120 minutes) and added to 96-well plates which had been pre-filled with 300 μL of acetonitrile. Samples were stored at 4° C. until the end of the experiment. After the final time point was sampled, the plate was mixed and then centrifuged at 3,000 rpm for 10 minutes. Aliquots of the supernatant were removed, diluted 1:1 into distilled water, and analyzed by LC-MS/MS. The peak area response ratio to internal standard (PARR) of the compound at 15, 30, 60 and 120 minutes was compared to the PARR at time 0 to determine the percent of test compound remaining at each time point. Half-lives were calculated using GraphPad software, fitting to a single-phase exponential decay equation.
# Protocol 2: Studies were carried out in plasma. Plasma was prepared under approval of IRB and IACUC on sodium heparin. The pH of plasma was monitored and used within the range of pH 7.4 to pH 8.0. DMSO stocks were prepared for the test compounds. Aliquots of the DMSO solutions were diluted to 0.05 mM by 0.05 mM Sodium phosphate buffer with 0.5% BSA. Then 10 μL of 0.05 mM solutions were dosed into 90 μL of plasma in duplicates (n=2), which had been pre-warmed to 37° C., at a final test compound concentration of 5 μM. The plates were kept in a 37° C. water bath for the duration of the experiment. At each time point (0, 5, 15, 30, 45, 60, and 120 minutes), 400 μL of acetonitrile was added into corresponding wells. After the final time point was sampled, the plates were shaken at the vibrator (IKA, MTS 2/4) for 10 min (600 rpm/min) and then centrifuged at 5594 g for 15 min (Thermo Multifuge×3R). Aliquots of the supernatant were removed, diluted 1:1 into distilled water, and analyzed by LC-MS/MS. The peak area response ratio to internal standard (PARR) of the compounds at 5, 15, 30, 45, 60, and 120 minutes was compared to the PARR at time 0 to determine the percent of test compound remaining at each time point. Half-lives were calculated using Excel software, fitting to a single-phase exponential decay equation.
row,Structure (SMILES),% Remaining @ 2 h [%]
1,"Cl.O=C(OCC12CCN(CC1)CC2)c1c[nH]c2cc(F)cc(Cl)c12 [Compound 64, quinuclidin-4-ylmethyl 4-chloro-6-fluoro-1H-indole-3-carboxylate hydrochloride]",76.61
2,"Cc1cc2[nH]cc(C(=O)OCC34CCN(CC3)CC4)c2cc1Cl.Cl [Compound 66, quinuclidin-4-ylmethyl 5-chloro-6-methyl-1H-indole-3-carboxylate hydrochloride]",71.77
3,"Cl.O=C(OCC12CCN(CC1)CC2)c1c[nH]c2cc(Cl)cc(Cl)c12 [Compound 71, quinuclidin-4-ylmethyl 4,6-dichloro-1H-indole-3-carboxylate hydrochloride]",72.03

# Same assay, conditions: human, plasma
row,Structure (SMILES),T1/2
1,"Cc1ccc2[nH]cc(C(=O)OCC34CCN(CC3)CC4)c2c1Br [Compound 68, quinuclidin-4-ylmethyl 4-bromo-5-methyl-1H-indole-3-carboxylate]",∞

# Same assay, conditions: human, plasma, 2 h, 5 μM
row,Structure (SMILES),% Remaining @ 2 h [%]
1,"O=C(OCC12CCN(CC1)CC2)c1c[nH]c2cccc(C3CC3)c12 [Compound 61, Quinuclidin-4-ylmethyl 4-cyclopropyl-1H-indole-3-carboxylate]",93.59
2,"O=C(OCC12CCN(CC1)CC2)c1c[nH]c2ccc(F)c(Br)c12 [Compound 67, quinuclidin-4-ylmethyl 4-bromo-5-fluoro-1H-indole-3-carboxylate]",98.92
3,"Cc1ccc2[nH]cc(C(=O)OCC34CCN(CC3)CC4)c2c1Br [Compound 68, quinuclidin-4-ylmethyl 4-bromo-5-methyl-1H-indole-3-carboxylate]",103.13
4,"COc1cc2c(C(=O)OCC34CCN(CC3)CC4)c[nH]c2cc1Cl [Compound 69, quinuclidin-4-ylmethyl 6-chloro-5-methoxy-1H-indole-3-carboxylate]",78.66
5,"Cc1ccc2[nH]cc(C(=O)OCC34CCN(CC3)CC4)c2c1C [Compound 70, quinuclidin-4-ylmethyl 4,5-dimethyl-1H-indole-3-carboxylate]",71.56

# Tested on: not listed separately
# Assay: Metabolic stability assay in rat liver microsomes (RLM)
# Assay type: in vitro ADME
# Settings: Protocol No. 1; rat liver microsomes, 1 μM
# Procedure: (§1) Protocol 1: Studies were carried out in human and rat liver microsomes (“HLM” and “RLM,” respectively). Human and rat liver microsomes were purchased from BD Gentest. DMSO stocks were prepared for the test compounds. Aliquots of the DMSO solutions were diluted to 0.5 mM by acetonitrile, then further diluted by liver microsomes/buffer to 1.5 μM. 30 μL of 1.5 μM solutions were mixed with 15 μL of 6 mM NADPH, which had been pre-warmed to 37° C., at a final test compound concentration of 1 μM. The plates were kept in a 37° C. water bath for the duration of the experiment. At each time point (0, 5, 15, 30, 45 minutes), 135 μL of acetonitrile was added into corresponding wells. After the final time point was sampled, the plates were shaken at a vibrator (IKA, MTS 2/4) for 10 min (600 rpm/min) and then centrifuged at 5594 g for 15 min (Thermo Multifuge×3R). Aliquots of the supernatant were removed, diluted 1:1 into distilled water, and analyzed by LC-MS/MS. The peak area response ratio to internal standard (PARR) of the compounds at 5, 15, 30, 45 minutes was compared to the PARR at time 0 to determine the percent of test compound remaining at each time point. Half-lives were calculated using Excel software, fitting to a single-phase exponential decay equation.
# (§2) Protocol 2: Studies were carried out in human and rat liver microsomes. Buffer solutions were prepared as follows: Buffer A: 1.0 L of 0.1 M monobasic Potassium Phosphate buffer containing 1.0 mM EDTA; Buffer B: 1.0 L of 0.1 M Dibasic Potassium Phosphate buffer containing 1.0 mM EDTA; Buffer C: 0.1 M Potassium Phosphate buffer, 1.0 mM EDTA, pH 7.4 by titrating 700 mL of buffer B with buffer A while monitoring with a pH meter.
# (§3) Reference compound (Ketanserin) and test compound spiking solutions were prepared as follows: 500 μM spiking solution: add 10 μL of 10 mM DMSO stock solution into 190 μL ACN; 1.5 μM spiking solution in microsomes (0.75 mg/mL): add 1.5 μL of 500 μM spiking solution and 18.75 μL of 20 mg/mL liver microsomes into 479.75 μL of Buffer C.
# (§4) NADPH stock solution (6 mM) was prepared by dissolving NADPH into buffer C.
# (§5) Assay procedure: 30 μL of 1.5 μM spiking solution containing 0.75 mg/mL microsomes solution was dispensed to the wells designated for […]. The plate was pre-incubated at 37° C. for 10 minutes. 15 μL of NADPH stock solution (6 mM) was added to the wells designated as Time 45, and the timer was started. At 30 mM, 15 mM, and 5 mM, 15 μL NADPH stock solution (6 mM) was added to the wells, respectively. At the end of incubation (0 mM), 135 μL of ACN containing IS was added to all the wells. Then 15 μL of NADPH stock solution (6 mM) was added to the wells designated as Time 0. After quenching, the reaction mixtures were centrifuged at 3220 g for […]. Following centrifugation, 50 μL of the supernatant was transferred from each well into a 96-well sample plate containing 50 μL of ultra-pure water (Millipore) for LC/MS analysis. The peak area response (PARR) ratio to internal standard of the compounds at 5, 15, 30, and 45 minutes was compared to the PARR at time 0 to determine the percent of test compound remaining at each time point. Half-lives were calculated using Excel software, fitting to a single-phase exponential decay equation.
row,Structure (SMILES),RLM [mL/min/kg]
1,"Cl.O=C(OCC12CCN(CC1)CC2)c1c[nH]c2cc(F)cc(Cl)c12 [Compound 64, quinuclidin-4-ylmethyl 4-chloro-6-fluoro-1H-indole-3-carboxylate hydrochloride]",77.4932
2,"Cc1cc2[nH]cc(C(=O)OCC34CCN(CC3)CC4)c2cc1Cl.Cl [Compound 66, quinuclidin-4-ylmethyl 5-chloro-6-methyl-1H-indole-3-carboxylate hydrochloride]",934.845
3,"Cl.O=C(OCC12CCN(CC1)CC2)c1c[nH]c2cc(Cl)cc(Cl)c12 [Compound 71, quinuclidin-4-ylmethyl 4,6-dichloro-1H-indole-3-carboxylate hydrochloride]",121.175

# Same assay, conditions: rat, microsomes, 1 μM
row,Structure (SMILES),RLM [mL/min/kg]
1,"O=C(OCC12CCN(CC1)CC2)c1c[nH]c2cccc(C3CC3)c12 [Compound 61, Quinuclidin-4-ylmethyl 4-cyclopropyl-1H-indole-3-carboxylate]",434.65
2,"O=C(OCC12CCN(CC1)CC2)c1c[nH]c2ccc(F)c(Br)c12 [Compound 67, quinuclidin-4-ylmethyl 4-bromo-5-fluoro-1H-indole-3-carboxylate]",594.86
3,"Cc1ccc2[nH]cc(C(=O)OCC34CCN(CC3)CC4)c2c1Br [Compound 68, quinuclidin-4-ylmethyl 4-bromo-5-methyl-1H-indole-3-carboxylate]",1271.39
4,"COc1cc2c(C(=O)OCC34CCN(CC3)CC4)c[nH]c2cc1Cl [Compound 69, quinuclidin-4-ylmethyl 6-chloro-5-methoxy-1H-indole-3-carboxylate]",238.87
5,"Cc1ccc2[nH]cc(C(=O)OCC34CCN(CC3)CC4)c2c1C [Compound 70, quinuclidin-4-ylmethyl 4,5-dimethyl-1H-indole-3-carboxylate]",1349.06

# Tested on: not listed separately
# Assay: Metabolic stability assay in human liver microsomes (HLM)
# Assay type: in vitro ADME
# Settings: Protocol No. 1; human liver microsomes, 1 μM
# Procedure: as §1, §2, §3, §4, §5
row,Structure (SMILES),HLM [mL/min/kg]
1,"Cl.O=C(OCC12CCN(CC1)CC2)c1c[nH]c2cc(F)cc(Cl)c12 [Compound 64, quinuclidin-4-ylmethyl 4-chloro-6-fluoro-1H-indole-3-carboxylate hydrochloride]",2.7474
2,"Cc1cc2[nH]cc(C(=O)OCC34CCN(CC3)CC4)c2cc1Cl.Cl [Compound 66, quinuclidin-4-ylmethyl 5-chloro-6-methyl-1H-indole-3-carboxylate hydrochloride]",0
3,"Cl.O=C(OCC12CCN(CC1)CC2)c1c[nH]c2cc(Cl)cc(Cl)c12 [Compound 71, quinuclidin-4-ylmethyl 4,6-dichloro-1H-indole-3-carboxylate hydrochloride]",6.768

# Same assay, conditions: human, microsomes, 1 μM
row,Structure (SMILES),HLM [mL/min/kg]
1,"O=C(OCC12CCN(CC1)CC2)c1c[nH]c2cccc(C3CC3)c12 [Compound 61, Quinuclidin-4-ylmethyl 4-cyclopropyl-1H-indole-3-carboxylate]",10.81
2,"O=C(OCC12CCN(CC1)CC2)c1c[nH]c2ccc(F)c(Br)c12 [Compound 67, quinuclidin-4-ylmethyl 4-bromo-5-fluoro-1H-indole-3-carboxylate]",6.65
3,"Cc1ccc2[nH]cc(C(=O)OCC34CCN(CC3)CC4)c2c1Br [Compound 68, quinuclidin-4-ylmethyl 4-bromo-5-methyl-1H-indole-3-carboxylate]",3.48
4,"COc1cc2c(C(=O)OCC34CCN(CC3)CC4)c[nH]c2cc1Cl [Compound 69, quinuclidin-4-ylmethyl 6-chloro-5-methoxy-1H-indole-3-carboxylate]",8.8
5,"Cc1ccc2[nH]cc(C(=O)OCC34CCN(CC3)CC4)c2c1C [Compound 70, quinuclidin-4-ylmethyl 4,5-dimethyl-1H-indole-3-carboxylate]",0
